Some targets named below: Tat (Human immunodeficiency virus type 1 group M subtype B, UniProt P04608); Reverse transcriptase (Human immunodeficiency virus type 1 group M subtype B, UniProt P04585); Integrase (Human immunodeficiency virus type 1 group M subtype B, UniProt P04585).
A further experiment concerns HIV-1. Conditions: HIV-1, target Unknown, cited from earlier work.
The target in a further experiment is Vpr (Human immunodeficiency virus type 1 group M subtype B, UniProt P12520). The settings on record: read-out: Inhibitory effect (uM), EC50, Vpr; HIV-1 target Vpr; cited from earlier work.
For experiment [1], the system named is chloroquine-resistant strain K1 of P. falciparum. Put plainly: P. falciparum growth inhibition in culture, strain K1. In kind it is cell-based, Plasmodium falciparum.
For experiment [2], the target named is T1, KSHV protease (Human herpesvirus 8 type P, UniProt Q2HRB6). Put plainly: Surface Plasmon Resonance, KSHV protease. The experiment is classed as binding. Also noted: herpes simplex virus (HSV) proteases (including HSV2, VZV, EBV, CMV, and KSHV). Conditions: SPR, FIG. 4. Here is the method:
(§1) Four inhibitors were evaluated; our top ranking one (TMPyP4) clearly binds to all three proteases as predicted. […] A third inhibitor, GW8510, predicted to bind fails (i.e., a misprediction). […] Our inhibitor prediction is completely consistent with the observed experimental data which is verified further by cell culture studies in FIG. 4 and compared to existing antiherpes drugs.

Experiment [3] deals with T2, CMV protease (Human cytomegalovirus, UniProt P16753). Put plainly: Surface Plasmon Resonance, CMV protease. In kind it is binding. Details: herpes simplex virus (HSV) proteases (including HSV2, VZV, EBV, CMV, and KSHV). Conditions: SPR, FIG. 4. Here is the method: as §1
In another experiment the target is HSV protease. The experiment in a line: Surface Plasmon Resonance, HSV protease. The experiment is classed as binding. The settings on record: SPR, FIG. 4. Here is the method:
as §1

For experiment [4], the system named is chloroquine-sensitive strain 3D7 of P. falciparum. Put plainly: P. falciparum growth inhibition in culture, strain 3D7. In kind it is cell-based, Plasmodium falciparum.
For experiment [5], the system named is plasmepsin enzyme target from the malarial parasite Plasmodium malariae. Conditions: complexes solved by x-ray diffraction (1msm, 2anl); cited from earlier work.
The next experiment has as its target Protease (Human immunodeficiency virus type 1 group M subtype B, UniProt P04585). The settings on record: HIV-1 target Protease; read-out: Inhibitory effect (uM), IC50, Protease; cited from earlier work.
For the next experiment, the target named is T3, gp120 (Human immunodeficiency virus type 1 group M subtype B, UniProt P03375).
T3 construct: V3 region of HIV-1 envelope glycoprotein gp120 to galactosylceramide
Conditions: read-out: Inhibitory effect (uM), ED50, gp120; HIV-1 target gp120; cited from earlier work.

The subject of a further experiment is HSV-1 strain F. Put plainly: HSV-1 infection of Vero cells, virus titer. The experiment is classed as cell-based.
Experiment [6] concerns herpesvirus lytic phase viral growth. Put plainly: Herpesvirus lytic phase viral growth in vitro. In kind it is cell-based. The settings on record: dose-dependent, starting at micromolar concentrations.
Experiment [7] has as its target T2, CMV protease. The experiment in a line: Surface Plasmon Resonance (SPR), dissociation constant for CMV protease. Details: CMV protease Kd (uM). In kind it is binding. The text has this:
(§2) The first experimental verification of our computational predictions were with TMPyP4, the top ranking inhibitor predicted to bind to all known herpesvirus proteases (see FIG. 3). This is also the inhibitor that we have characterized most computationally and experimentally, so we focus primarily on this inhibitor. […] Traditional approaches to design an inhibitor against this molecule is likely to fail since it has an extremely shallow active site pocket. However, protease dimerisation is essential for protein function and our top ranking inhibitor not only fit around the active site (covering it) but also intercolated itself in the dimer interface. Our predicted mode of action was therefore two fold: covering the surface of the active site, and inhibition of dimerisation in a reversible manner (i.e., as dimers formed, our inhibitor would bind which would disrupt the dimer, resulting in the inhibitor binding weakly and likely released, which would lead to reformation of the dimer, and so on). FIG. 3 illustrates this mode of action. […] TMPyP4 is the only known compound that is capable of inhibiting all three classes of herpesviruses.
(§3) Four inhibitors were evaluated; our top ranking one (TMPyP4) clearly binds to all three proteases as predicted. […] A third inhibitor, GW8510, predicted to bind fails (i.e., a misprediction). […]

The target in experiment [8] is T1, KSHV protease. The experiment in a line: Surface Plasmon Resonance (SPR), dissociation constant for KSHV protease. The experiment is classed as binding, Kaposi's sarcoma virus (KSHV). Also noted: KSHV protease Kd (uM).
Excerpt: as §2, §3

In the next experiment the test system is CMV. Put plainly: CMV infection of HFF cells, virus titer. The experiment is classed as cell-based. Conditions: FIG. 5.
The target of the next experiment is T4, HSV2 protease (Human herpesvirus 2, UniProt P89449).
T4 construct: HSV2 protease Kd (uM)
The experiment in a line: Surface Plasmon Resonance (SPR), dissociation constant for HSV protease. In kind it is binding, herpes simplex virus (HSV2).
Excerpt: as §2, §3

Another experiment deals with KSHV. Put plainly: KSHV inhibition, different assay, fold reduction. Conditions: FIG. 5. In kind it is cell-based.
A further experiment relates to gp41. Conditions: HIV-1 target gp41; read-out: Inhibitory effect (uM), IC50, gp41; cited from earlier work.
The mark [9] stands for this setting: HIV-1 target Tat; read-out: Inhibitory effect (uM), IC50, Tat; cited from earlier work.
[10] abbreviates: HIV-1 target Integrase; read-out: Inhibitory effect (uM), IC50, Integrase; cited from earlier work.

Broadly, the IC50 is the point on the concentration scale where inhibition reaches its midpoint. One may read the Kd as a measure of binding affinity in units of concentration. Low readings indicate tighter binding, high ones weaker binding.

Like-named read-outs stand apart in the source and are kept apart here.

Chain of Tat (P04608 whole entry): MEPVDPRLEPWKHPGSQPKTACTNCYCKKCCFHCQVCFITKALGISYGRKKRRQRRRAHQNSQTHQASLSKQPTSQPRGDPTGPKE
T2 sequence (P16753 1-256): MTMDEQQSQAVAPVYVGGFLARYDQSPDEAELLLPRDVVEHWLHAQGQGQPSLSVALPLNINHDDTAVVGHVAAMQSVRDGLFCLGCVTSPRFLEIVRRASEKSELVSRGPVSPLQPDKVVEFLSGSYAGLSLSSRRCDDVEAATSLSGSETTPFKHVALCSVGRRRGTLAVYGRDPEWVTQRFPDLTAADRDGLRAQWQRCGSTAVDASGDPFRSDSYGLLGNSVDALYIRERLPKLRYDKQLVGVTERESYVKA
T1 sequence (Q2HRB6 1-230): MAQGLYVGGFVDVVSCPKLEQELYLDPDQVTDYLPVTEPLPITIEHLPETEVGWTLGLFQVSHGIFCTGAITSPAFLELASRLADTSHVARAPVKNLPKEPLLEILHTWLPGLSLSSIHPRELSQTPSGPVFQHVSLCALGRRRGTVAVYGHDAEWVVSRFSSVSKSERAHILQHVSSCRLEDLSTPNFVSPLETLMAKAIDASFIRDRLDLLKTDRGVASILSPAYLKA
T4 sequence (P89449 1-247): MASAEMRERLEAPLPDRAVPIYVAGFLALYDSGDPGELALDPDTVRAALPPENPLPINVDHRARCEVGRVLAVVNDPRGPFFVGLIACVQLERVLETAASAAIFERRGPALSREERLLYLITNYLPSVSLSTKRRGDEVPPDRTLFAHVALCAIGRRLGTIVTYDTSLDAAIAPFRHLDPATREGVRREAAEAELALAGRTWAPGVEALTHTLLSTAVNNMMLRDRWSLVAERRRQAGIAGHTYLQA
Chain of Vpr (P12520 whole entry): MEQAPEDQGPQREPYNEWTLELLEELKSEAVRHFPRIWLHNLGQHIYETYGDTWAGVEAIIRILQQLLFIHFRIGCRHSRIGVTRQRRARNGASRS

For the molecule `CCN(CC)CCCC(C)Nc1ccnc2cc(Cl)ccc12` (stereo not shown) [Chloroquine], the IC50 on Tat (read-out: Inhibitory effect (uM), IC50, Tat; HIV-1 target Tat; cited from earlier work) was under 50 µM; on Reverse transcriptase (read-out: Inhibitory effect (uM), IC50, Reverse transcriptase; HIV-1 target Reverse transcriptase; cited from earlier work), over 300 µM; at Integrase (read-out: Inhibitory effect (uM), IC50, Integrase; HIV-1 target Integrase; cited from earlier work), 5.14 µM.

For `COc1cc(/C=C/C(=O)CC(=O)/C=C/c2ccc(O)c(OC)c2)ccc1O` [Curcumin], at Tat (setting [9]), the IC50 is under 30 µM.

Turning to `CCC(C)c1c(O[C@H]2C[C@@H](O[C@H]3C[C@@H](O)[C@H](O)[C@@H](C)O3)[C@H](O)[C@@H](C)O2)cc2cc3c(c(O)c2c1O)C(=O)C(O[C@H]1C[C@@H](O[C@H]2C[C@@H](O[C@H]4C[C@@H](O[C@H]5C[C@@H](O)[C@H](O)[C@@H](C)O5)[C@H](O)[C@@H](C)O4)[C@@H](OC(C)=O)[C@@H](C)O2)[C@H](O)[C@@H](C)O1)C(C(OC)C(=O)C(O)C(C)O)C3` (stereo partly shown) [Durhamycin A], the IC50 at Tat (setting [9]) was 0.0048 µM.

Regarding `CC(C)S(=O)(=O)n1c(N)nc2ccc(/C(=N/O)c3ccccc3)cc21` [Enviroxime], the EC50 with HIV-1 (read-out: Inhibitory effect (uM), EC50, target Unknown) is over 36.5 µM.

As to `CO[C@@H]1[C@H](OC(=O)/C=C/C=C/C=C/C=C/C(=O)O)CC[C@]2(CO2)[C@H]1[C@@]1(C)O[C@@H]1CC=C(C)C` [Fumagillin], the EC50 is over 0.2 µM in the experiment with HIV-1 (printed EC, read-out: Inhibitory effect (uM), EC, target Unknown) and 0.015 µM at Vpr.

As to `O=C1Nc2ccc3ncsc3c2/C1=C/Nc1ccc(S(=O)(=O)Nc2ccccn2)cc1` [GW8510], the EC50 in experiment [1] (Table 3 section A, mean of at least two measurements, read-out: ED50 in K1) was 1 µM; in experiment [1] (Table 5, read-out: ED50 (μM) in K1), 1 µM; in [4] (Table 3 section A, mean of at least two measurements, read-out: ED50 in 3D7), 1 to 10 µM; in experiment [4] (Table 5, read-out: ED50 (μM) in 3D7), 1 to 10 µM. In addition, at KSHV protease [2], the “disassociation constant (Kd), KSHV protease” value was “fails”. In addition, the “disassociation constant (Kd), CMV protease” value on CMV protease [3] was “fails”. For the same molecule, on HSV protease, the “disassociation constant (Kd), HSV protease” value is on record as “fails”. Moreover, in experiment [4] (Table 5, P. falciparum ED50 in 3D7 and K1), the “experimentally determined to work” value is “N”.

`CCN(CCO)CCCC(C)Nc1ccnc2cc(Cl)ccc12` (stereo not shown) [Hydroxychloroquine]: the IC50 on Integrase (setting [10]) is over 100 µM.

With `Cc1ccccc1CNC(=O)[C@H]1N(C(=O)[C@@H](O)[C@H](Cc2ccccc2)NC(=O)c2cccc(O)c2C)CSC1(C)C` [KNI-764], the “inhibition of HIV-1 protease and plasmepsin” value in experiment [5] is “inhibits both HIV-1 protease and the plasmepsin enzyme target”. Further, on Protease, the IC50 was over 0.05 µM.

Regarding `CN(C)c1ccc(O)c2c1C[C@H]1C[C@H]3[C@H](N(C)C)C(O)=C(C(N)=O)C(=O)[C@@]3(O)C(O)=C1C2=O` [Minocycline], the IC50 on Reverse transcriptase (HIV-1 target Reverse transcriptase; read-out: Inhibitory effect (uM), IC50, Reverse transcriptase; cited from earlier work) was 1200 µM.

Take `Cc1ccc(C(=O)Nc2ccc(S(=O)(=O)O)c3cc(S(=O)(=O)O)cc(S(=O)(=O)O)c23)cc1NC(=O)c1cccc(NC(=O)Nc2cccc(C(=O)Nc3cc(C(=O)Nc4ccc(S(=O)(=O)O)c5cc(S(=O)(=O)O)cc(S(=O)(=O)O)c45)ccc3C)c2)c1` [Suramin]: the EC50 at gp120 was 7.7 µM. Also, the IC50 at Integrase (setting [10]) was 2.4 µM.

`C[n+]1ccc(-c2c3nc(c(-c4cc[n+](C)cc4)c4ccc([nH]4)c(-c4cc[n+](C)cc4)c4nc(c(-c5cc[n+](C)cc5)c5ccc2[nH]5)C=C4)C=C3)cc1` [TMPyP4, meso-5,10,15,20-Tetrakis-(N-methyl-4-pyridyl)porphine tetratosylate]: in the experiment on HSV-1 strain F (FIG. 5 bottom left panel, virus not named), the “effect used together with acylovir” value is “almost completely eliminates all virus when used together”. Also, the “effectiveness after passage for several cycles with both acylovir and TMPyP4” value in the experiment with HSV-1 strain F (FIG. 5 bottom right panel, virus not named) is recorded as “still continues to be effective”. The “inhibition of HSV, virus titer” value in the experiment on HSV-1 strain F (Vero cells, HSV-1 strain F, FIG. 5) was “comparably or better than existing antiherpes drugs”. The “inhibition of lytic phase viral growth” value in experiment [6] was 90%. The EC50 in experiment [1] (Plasmodium falciparum, K1, Table 3 section A, mean of at least two measurements, read-out: ED50 in K1) was 1 µM; in experiment [1] (Plasmodium falciparum, K1, Table 5, read-out: ED50 (μM) in K1), 1 µM; in experiment [4] (Plasmodium falciparum, 3D7, Table 3 section A, mean of at least two measurements, read-out: ED50 in 3D7) it was 1 µM; in experiment [4] (Plasmodium falciparum, 3D7, Table 5, read-out: ED50 (μM) in 3D7) it was 1 µM. Also, the Kd at CMV protease [7] was 36 µM; on KSHV protease [8], 32.8 µM; on HSV2 protease, 40 µM. Besides, the “disassociation constant (Kd), KSHV protease” value at KSHV protease [2] is “micromolar range”. Moreover, the “disassociation constant (Kd), CMV protease” value on CMV protease [3] was “micromolar range”. Also, at HSV protease, the “disassociation constant (Kd), HSV protease” value is given as “micromolar range”. Also, the “result of the 16 tested inhibitors in words (binding)” value in experiment [4] (summary of Table 5) is listed as “moderate binding”. In addition, the “inhibition of CMV, virus titer” value in the experiment with CMV is given as “comparably or better than existing antiherpes drugs”. In the experiment with KSHV, the “inhibition of KSHV” value was “inhibited KSHV”.

Regarding Amphotericin B, the IC50 in the experiment on gp41 is over 10 µM.

The values above are taken from patent publication US20120142623A1, “Compositions And Methods For Predicting Inhibitors Of Protein Targets” (priority 2006, published 2012).
